This passage reports melting point results from paper PMC9919957 (2023).

With `O=C1CC(c2ccc(O)cc2)Oc2cc(OC3OC(CO)C(O)C3O)cc(O)c21` (centres unmarked), the melting point was in the range of 229 to 230 °C. To `NCC[C@H]1C[C@H](O)C(=O)O1` (hydrate or solvate) belongs 347 to 350 °C.

Broadly, the melting point is the temperature of the solid-liquid transition.
